From article PMC10056348, “Photocaged Histone Deacetylase Inhibitors as Prodrugs in Targeted Cancer Therapy” (Pharmaceuticals, 2023)

Tests used:
[1] = system: acetyl-α-tubulin in MV-3 cells; test: Immunoblot of acetyl-α-tubulin (marker of HDAC6 inhibition); type: cell-based; conditions: 24 h, 3.1 µM
Experimental: MV-3 cells were seeded to cell culture flasks and cultured for 48 h. Aliquots of the DMSO stock solution (10 mM) designated for photolysis were irradiated for 10 min with the UV reactor (see Section 4.3). The cells were treated with the stock solutions, processed with or without irradiation, of the indicated concentration or vehicle (DMSO) for 24 h. Cell lysis was performed with Cell Extraction Buffer (10 mM Tris, pH 7.4, 100 mM NaCl, 1 mM EDTA, 1 mM EGTA, 1 mM NaF, 20 mM Na4P2O7, 2 mM Na3VO4, 1% Triton™ ×-100, 10% glycerol, 0.1% SDS, 0.5% deoxycholate; Catalog# FNN0011, Thermo Fisher Scientific Inc., Waltham, MA, USA) and addition of Halt Protease Inhibitor Cocktail (100×) (Catalog# 78429, Life Technologies GmbH Carlsbad, CA, USA) and phenylmethanesulfonyl fluoride (Catalog# 10837091001, Sigma-Aldrich, St. Louis, MO, USA) according to manufacturer instructions. Protein content was determined by Pierce™ BCA Protein Assay Kit (Catalog# 23225, Thermo Fisher Scientific Inc., Waltham, MA, USA) according to manufacturer guidelines. Samples were denatured by Laemmli 2× Concentrate (Catalog# S3401-10VL, Sigma-Aldrich, St. Louis, MO, USA), and Precision Plus Protein Unstained Standard was used as molecular weight marker (Catalog# 1610363, Bio-Rad, Hercules, CA, USA). SDS-PAGE was performed with 10% Mini-PROTEAN TGX Stain-Free Gel at 200 V for 50 min (Catalog# 458035, Bio-Rad, Hercules, CA, USA). Afterwards, proteins were transferred with the Trans-Blot Turbo Transfer System (Catalog# 1704150, Bio-Rad, Hercules, CA, USA) to Immobilon-FL PVDF membranes (Catalog# IPFL00005, Millipore Merck, Burlington, MA, USA) at 1.0 A for 30 min and incubated with 5% milk-powder solution for 1 h at room temperature under slight agitation. Subsequently, the membranes were incubated with anti-acetyl-histone H3 (Catalog# 9677S, Cell Signaling Technology, Denver, MA, USA), anti-acetyl-α-tubulin (Catalog#5335, Cell Signaling Technology, Denver, MA, USA), and anti-GAPDH (Catalog# T0004, Affinity Biosciences, Cincinnati, OH, USA) in 1:1000–1:10000 dilutions at 4 °C, overnight. […]

A2780 cell line = test: MTT cell viability assay, A2780; type: cell-based, human
Experimental: The amelanotic melanoma cell line MV-3 was obtained from EPO GmbH Berlin-Buch. The human ovarian carcinoma cell line A2780 was obtained from the European Collection of Cell Cultures (ECACC, Salisbury, UK). The cell lines were cultivated in RPMI 1640 medium supplemented with 10% fetal bovine serum and 50 U/mL penicillin and 50 µg/mL streptomycin and incubated at 37 °C under humidified air with 5% CO2 to 80–90% confluency before being used in further assays.
For this, 200-fold dilution series of the compounds of the respective stock solutions in DMSO (10 mM) were prepared in DMSO using clear U-bottom 96-well microplates (Greiner Bio-One, Greiner AG, Kremsmünster, Austria). Predilutions intended for photolysis experiments were irradiated for 10 min in the UV reactor described above. Thereafter, all predilutions were further diluted 1:200 in medium and provided in clear sterile F-bottom 96-well plates (Starlab GmbH, Hamburg, Germany). MV-3 cells were added at a density of 3000 cells/well and A2780 cells at a density of 8000 cells/well. The cells were added directly and without prior attachment. Final volume was 200 µL, and the final DMSO concentration was 0,5%. After 72 h, 40 µL MTT (3-(4,5-dimethylthiazol-2-yl)-2,5-diphenyltetrazolium bromide; BioChemica, Applichem GmbH, Darmstadt, Germany ) solution (5 mg/mL in phosphate-buffered saline) was added to determine cell survival. The formazan dye was dissolved in DMSO (Sigma-Aldrich, Steinheim, Germany) after 1 h, and absorbance was measured at 570 nm and 690 nm using a Multiskan microplate photometer (Thermo Fisher Scientific, Waltham, MA, USA). Concentration-effect curves were generated using the four-parameter logistic equation (GraphPad Prism 9.0, San Diego, CA, USA), and mean IC50 values were determined by nonlinear regression based on at least three distinct experiments in duplicates.

HepG2 cancer cell line = system: HepG2 cancer cell line; set-up: method as in PMID 30664827; conditions: cited from earlier work
[2] = system: acetyl-histone H3 in MV-3 cells; test: Immunoblot of acetyl-histone H3 (marker of HDAC1-3 inhibition); type: cell-based; conditions: 24 h, 3.1 µM, after UV irradiation (365 nm, 10 min)
Experimental: MV-3 cells were seeded to cell culture flasks and cultured for 48 h. Aliquots of the DMSO stock solution (10 mM) designated for photolysis were irradiated for 10 min with the UV reactor (see Section 4.3). The cells were treated with the stock solutions, processed with or without irradiation, of the indicated concentration or vehicle (DMSO) for 24 h. Cell lysis was performed with Cell Extraction Buffer (10 mM Tris, pH 7.4, 100 mM NaCl, 1 mM EDTA, 1 mM EGTA, 1 mM NaF, 20 mM Na4P2O7, 2 mM Na3VO4, 1% Triton™ ×-100, 10% glycerol, 0.1% SDS, 0.5% deoxycholate; Catalog# FNN0011, Thermo Fisher Scientific Inc., Waltham, MA, USA) and addition of Halt Protease Inhibitor Cocktail (100×) (Catalog# 78429, Life Technologies GmbH Carlsbad, CA, USA) and phenylmethanesulfonyl fluoride (Catalog# 10837091001, Sigma-Aldrich, St. Louis, MO, USA) according to manufacturer instructions. Protein content was determined by Pierce™ BCA Protein Assay Kit (Catalog# 23225, Thermo Fisher Scientific Inc., Waltham, MA, USA) according to manufacturer guidelines. Samples were denatured by Laemmli 2× Concentrate (Catalog# S3401-10VL, Sigma-Aldrich, St. Louis, MO, USA), and Precision Plus Protein Unstained Standard was used as molecular weight marker (Catalog# 1610363, Bio-Rad, Hercules, CA, USA). […]

| IC50 (A2780 cell line; Homo sapiens, A2780, light or radiation study, MTT, 72 h, without UV irradiation) [nM] | IC50 (A2780 cell line; Homo sapiens, A2780, light or radiation study, MTT, 72 h, after UV irradiation (365 nm, 10 min)) [nM] | Compound | level of acetylated α-tubulin ([1]; without UV irradiation) | antiproliferative activity against HepG2 (HepG2 cancer cell line) | level of acetylated α-tubulin ([1]; after UV irradiation (365 nm, 10 min)) | level of acetyl-histone H3 [2] | inhibition at 25 µM (A2780 cell line; Homo sapiens, A2780, light or radiation study, at 25 µM, without UV irradiation) [%] | IC50 (A2780) (A2780 cell line; MTT, 72 h, without UV irradiation) |
| --- | --- | --- | --- | --- | --- | --- | --- | --- |
| 249 ± 84.7 | – | CN(C)c1ccc(C(=O)N(CC(=O)NCc2ccccc2)Cc2ccc(C(=O)NO)cc2)cc1 [I, N-[2-(benzylamino)-2-oxoethyl]-4-(dimethylamino)-N-[4-(hydroxycarbamoyl)-benzyl]-benzamide] | strong hyperacetylation | submicromolar antiproliferative activity | – | – | – | – |
| – | 428 ± 62.5 | COc1cc(CONC(=O)c2ccc(CN(CC(=O)NCc3ccccc3)C(=O)c3ccc(N(C)C)cc3)cc2)c([N+](=O)[O-])cc1OC [pc-I, N-[2-(Benzylamino)-2-oxoethyl]-N-(4-{[(4,5-dimethoxy-2-nitrobenzyl)oxy]carbamoyl}benzyl)-4-(dimethylamino)benzamide] | no increased levels of acetylated α-tubulin | – | increased level of acetyl-α-tubulin | higher amount of acetyl-histone-H3 | < 25 | n.e. ^b (n.e— no effect: <25% inhibition at 25 µM) |
